According to patent EP4692061A1, “LOW-MOLECULAR-WEIGHT COMPOUND HAVING CEREBLON-BINDING ACTIVITY, AND USE THEREOF” (Aevis Bio, Inc., priority 2023, dated 2024):
Where two headings read alike, the source gives them in different places.

Legend:
MM.1S = assay: Tumor cell viability, CCK-8 assay, MM.1S; format: cell-based; settings: MM.1S (human multiple myeloma); compound treatment 1uM; 5 days
Description: (§1) To examine whether the compounds having CRBN-binding activity according to the present invention exert tumor cell apoptosis effects, the assay was conducted using various human cancer cell lines, including human multiple myeloma cell lines (MM.1S and MM.1R-LR), a human breast cancer cell line (MDA-MB-231), a human lung cancer cell line (A549), a human rhabdomyosarcoma cell line (RD), and a human lymphoma cell line (Jeko-1).
(§2) The MM.1S, MM.1R-LR, MDA-MB-231, A549, RD, and Jeko-1 cell lines were obtained from the American Type Culture Collection (ATCC, Manassas, VA, USA) and cultured in RPMI 1640 medium (Corning, MD, USA) or DMEM (Corning, MD, USA) supplemented with 10% fetal bovine serum (FBS) (Corning, MD, USA), 100 U/mL penicillin (Corning, MD, USA), and 100 µg/mL streptomycin (Corning, MD, USA) at 37°C in a 5% CO2 incubator for 24 hours. The cells were seeded at a density of 1 × 10^4 cells/well in 96-well plates and incubated for 24 hours. After incubation, the test compounds dissolved in dimethyl sulfoxide (DMSO, CAS No.: 67-68-5) were serially diluted to a final concentration of 10 µM and applied to the cells. Following an additional incubation for 2 to 5 days, the analysis was performed using a CCK-8 assay kit (Dojindo, Japan) according to the manufacturer's instructions.

MM.1R-LR = assay: Tumor cell viability, CCK-8 assay, MM.1R-LR; format: cell-based; settings: MM.1R-LR (drug-resistant human multiple myeloma); compound treatment 1uM; 5 days
Description: as §1, §2

cereblon (CRBN) = cereblon (CRBN) (Homo sapiens, UniProt Q96SW2); assay: In vitro CRBN binding assay (AlphaScreen, competitive inhibition of the PROTAC assay)
MDA-MB-231 = assay: Tumor cell viability, CCK-8 assay, MDA-MB-231; format: cell-based; settings: MDA-MB-231 (human breast cancer); compound treatment 1uM; 2 days
Description: as §1, §2

A549 = assay: Tumor cell viability, CCK-8 assay, A549; format: cell-based; settings: A549 (human lung cancer); compound treatment 1uM; 2 days
Description: as §1, §2

[1] = Table 1, AlphaScreen, PROTAC Optimization Kit for BET Bromodomain-Cereblon Binding, read-out: Alpha IC50

| Compound | IC50 (cereblon (CRBN); [1]) [µM] | also measured |
| --- | --- | --- |
| O=C1CCC(c2cccc(NS(=O)(=O)c3cccc(NC(=O)c4ccc(Cl)cc4)c3)c2)C(=O)N1 (stereo not shown) [AEV41 001, 4-chloro-N-(3-(N-(3-(2,6-dioxopiperidin-3-yl)phenyl)sulfamoyl)phenyl)benzamide] | 1.23 | Cell viability (% of control) (MM.1S): 88.3 % of control; Cell viability (% of control) (MM.1R-LR): 78.4 % of control |
| CCCc1ccc(C(=O)Nc2cccc(S(=O)(=O)Nc3cccc(C4CCC(=O)NC4=O)c3)c2)cc1 (stereo not shown) [AEV41011, N-(3-(N-(3-(2,6-dioxopiperidin-3-yl)phenyl)sulfamoyl)phenyl)-4-propylbenzamide] | 0.7 | Cell viability (% of control) (MM.1S): 56.9 % of control; Cell viability (% of control) (MDA-MB-231): 96.7 % of control; Cell viability (% of control) (MM.1R-LR): 66.1 % of control; Cell viability (% of control) (A549): 98.9 % of control |
| O=C1CCC(c2cccc(NS(=O)(=O)c3cccc(NC(=O)c4ccc(CCl)cc4)c3)c2)C(=O)N1 (stereo not shown) [AEV41002, 4-(chloromethyl)-N-(3-(N-(3-(2,6-dioxopiperidin-3-yl)phenyl)sulfamoyl)phenyl)benzamide] | 0.17 | Cell viability (% of control) (MM.1S): 97.8 % of control; Cell viability (% of control) (MM.1R-LR): 90.2 % of control |
| CCc1ccc(C(=O)Nc2cccc(S(=O)(=O)Nc3cccc(C4CCC(=O)NC4=O)c3)c2)cc1 (stereo not shown) [AEV41010, N-(3-(N-(3-(2,6-dioxopiperidin-3-yl)phenyl)sulfamoyl)phenyl)-4-ethylbenzamide] | 0.42 | Cell viability (% of control) (MM.1S): 88.4 % of control; Cell viability (% of control) (MDA-MB-231): 95.7 % of control; Cell viability (% of control) (MM.1R-LR): 66.1 % of control; Cell viability (% of control) (A549): 96.7 % of control |
| Cc1ccc(C(=O)Nc2cccc(S(=O)(=O)Nc3cccc(C4CCC(=O)NC4=O)c3)c2)cc1 (stereo not shown) [AEV41009, N-(3-(N-(3-(2,6-dioxopiperidin-3-yl)phenyl)sulfamoyl)phenyl)-4-methylbenzamide] | 0.54 | Cell viability (% of control) (MM.1S): 92.9 % of control; Cell viability (% of control) (MM.1R-LR): 81.3 % of control |
| O=C1CCC(c2cccc(NS(=O)(=O)c3cccc(NC(=O)c4c(F)cccc4C(F)(F)F)c3)c2)C(=O)N1 (stereo not shown) [AEV40149] | 1.5 |  |
| CC(=O)Nc1cccc(C2CCC(=O)NC2=O)c1 (stereo not shown) [AEV40016] | 5.28 |  |
| Cc1ccc(NC(=O)CCc2cccc(Nc3cccc(C4CCC(=O)NC4=O)c3)c2)cc1Cl (stereo not shown) [AEV40185] | 4.35 |  |
| O=C1CCC(c2ccc3c(c2)C(=O)NC3)C(=O)N1 (stereo not shown) [AEV40032] | 3.1 |  |
| Cc1cc(Cl)ccc1C(=O)Nc1cccc(C2CCC(=O)NC2=O)c1 (stereo not shown) [AEV40147] | 1.37 |  |
| Nc1cc(-c2ccccc2)n(C(=O)CCc2cccc(Nc3cccc(C4CCC(=O)NC4=O)c3)c2)n1 (stereo not shown) [AEV40201] | 1.22 |  |
| O=C1CCC(c2cccc(NS(=O)(=O)c3cccc(NCc4cc5ccccc5[nH]4)c3)c2)C(=O)N1 (stereo not shown) [AEV40163] | 1.43 |  |
| O=C1CCC(c2cccc(Nc3cccc(CCC(=O)N4CCS(=O)(=O)CC4)c3)c2)C(=O)N1 (stereo not shown) [AEV40205] | 0.84 |  |
| O=C1CCC(c2cccc(NS(=O)(=O)c3cccc([N+](=O)[O-])c3)c2)C(=O)N1 (stereo not shown) [AEV40056] | 0.91 |  |
| O=C1CCC(c2cccc(NS(=O)(=O)c3cccc4ccccc34)c2)C(=O)N1 (stereo not shown) [AEV40048] | 0.79 |  |
| COc1ccc(C(=O)Nc2cccc(C3CCC(=O)NC3=O)c2)c(Cl)c1 (stereo not shown) [AEV40176] | 1.24 |  |
| O=C1CCC(c2cccc(NCc3cccc(C(F)F)c3)c2)C(=O)N1 (stereo not shown) [AEV40105] | 1.42 |  |
| O=C1CCC(c2cccc(NC(=O)c3ccc(F)cc3)c2)C(=O)N1 (stereo not shown) [AEV40140] | 1.83 |  |
| O=C1CCC(c2cccc(NS(=O)(=O)c3cccc(NC(=O)c4cc(F)cc(F)c4F)c3)c2)C(=O)N1 (stereo not shown) [AEV40158] | 0.71 |  |

| Compound | IC50 (cereblon (CRBN); [1]) [µM] | also measured |
| --- | --- | --- |
| COC(=O)CCc1cccc(Nc2cccc(C3CCC(=O)NC3=O)c2)c1 (stereo not shown) [AEV40184] | 1.41 |  |
| O=C1CCC(c2cccc(NCc3cccc4ccccc34)c2)C(=O)N1 (stereo not shown) [AEV40120] | 1.41 |  |
| O=C1CCC(c2cccc(NCc3ccccc3)c2)C(=O)N1 (stereo not shown) [AEV40087] | 1.15 |  |
| O=C1CCC(c2cccc(NS(=O)(=O)c3ccccc3C(F)(F)F)c2)C(=O)N1 (stereo not shown) [AEV40070] | 1.05 |  |
| O=C1CCC(c2cccc(NS(=O)(=O)c3cccc(NC(=O)C4CCOCC4)c3)c2)C(=O)N1 (stereo not shown) [AEV40225] | 12.1 |  |
| O=C1CCC(c2ccc3c(c2)OCCN(c2ccccc2)C3=O)C(=O)N1 (stereo not shown) [AEV40085] | 6.58 |  |
| O=C1CCC(c2ccc3c(c2)OCCN(Cc2ccccc2)C3=O)C(=O)N1 (stereo not shown) [AEV40086] | 4.14 |  |
| O=C1CCC(c2cccc(NS(=O)(=O)c3cccc(NCc4c[nH]c5ccc(Cl)cc45)c3)c2)C(=O)N1 (stereo not shown) [AEV40173] | 0.4 |  |
| O=C1CCC(c2cccc(NS(=O)(=O)c3ccc(C(F)(F)F)cc3)c2)C(=O)N1 (stereo not shown) [AEV40100] | 1.39 |  |
| O=C1CCC(c2cccc(NC(=O)c3ccccc3C(F)(F)F)c2)C(=O)N1 (stereo not shown) [AEV40180] | 1.13 |  |
| O=C1CCC(c2cccc(NC(=O)c3ccccc3F)c2)C(=O)N1 (stereo not shown) [AEV40145] | 1.03 |  |
| COC(=O)C1CC2(CC(NC(=O)CCc3cccc(Nc4cccc(C5CCC(=O)NC5=O)c4)c3)C2)C1 (stereo not shown) [AEV40210] | 1.22 |  |
| O=C1CCC(c2cccc(NS(=O)(=O)c3cccc(NC(=O)c4ccc(Cl)c(Cl)c4)c3)c2)C(=O)N1 (stereo not shown) [AEV40142] | 0.98 |  |
| O=C1CCC(c2cccc(NS(=O)(=O)c3ccccc3Cl)c2)C(=O)N1 (stereo not shown) [AEV40057] | 0.59 |  |
| CC(=O)N1CCC(NC(=O)CCc2cccc(Nc3cccc(C4CCC(=O)NC4=O)c3)c2)CC1 (stereo not shown) [AEV40200] | 0.96 |  |
| O=C1CCC(c2cccc(NC(=O)c3cccc(-c4ccccc4)c3)c2)C(=O)N1 (stereo not shown) [AEV40162] | 2.15 |  |
| Cc1ccccc1C(=O)Nc1cccc(C2CCC(=O)NC2=O)c1 (stereo not shown) [AEV40146] | 1.1 |  |
| Cc1ccc(C(=O)Nc2cccc(C3CCC(=O)NC3=O)c2)cc1 (stereo not shown) [AEV40141] | 2.08 |  |
| O=C1CCC(c2cccc(NC(=O)c3ccccc3-c3ccccc3)c2)C(=O)N1 (stereo not shown) [AEV40218] | 0.44 |  |

| Compound | IC50 (cereblon (CRBN); [1]) [µM] | also measured |
| --- | --- | --- |
| Cc1cn(C)nc1CNc1cccc(C2CCC(=O)NC2=O)c1 (stereo not shown) [AEV40113] | 0.66 |  |
| O=C1CCC(c2cccc(NS(=O)(=O)c3ccc([N+](=O)[O-])c(C(F)(F)F)c3)c2)C(=O)N1 (stereo not shown) [AEV40053] | 0.75 |  |
| O=C1CCC(c2cccc(O)c2)C(=O)N1 (stereo not shown) [AEV40089] | 1.14 |  |
| O=C1CCC(c2cccc(NS(=O)(=O)c3cccs3)c2)C(=O)N1 (stereo not shown) [AEV40072] | 0.31 |  |
| O=C1CCC(c2ccc3c(c2)CCNC3=O)C(=O)N1 (stereo not shown) [AEV40041] |  | IC50 (cereblon (CRBN)): 0.76 µM |
| O=C1CCC(c2cccc(NC(=O)c3ccc4ccccc4n3)c2)C(=O)N1 (stereo not shown) [AEV40187] | 0.83 |  |
| CCCc1ccc(S(=O)(=O)Nc2cccc(C3CCC(=O)NC3=O)c2)cc1 (stereo not shown) [AEV40047] | 1.5 |  |
| CS(=O)(=O)N1Cc2cc(C3CCC(=O)NC3=O)ccc2C1=O (stereo not shown) [AEV40059] | 102 |  |
| COc1ccccc1C(=O)Nc1cccc(S(=O)(=O)Nc2cccc(C3CCC(=O)NC3=O)c2)c1 (stereo not shown) [AEV40151] | 0.34 |  |
| O=C1CCC(c2cccc(NC(=O)c3cc(Cl)ccc3Cl)c2)C(=O)N1 (stereo not shown) [AEV40178] | 0.92 |  |
| Nc1ccccc1S(=O)(=O)Nc1cccc(C2CCC(=O)NC2=O)c1 (stereo not shown) [AEV40074] | 0.27 |  |
| Cc1cccc(S(=O)(=O)Nc2cccc(C3CCC(=O)NC3=O)c2)c1 (stereo not shown) [AEV40069] |  | IC50 (cereblon (CRBN); read-out: Alpha IC50, Table 1, AlphaScreen, PROTAC Optimization Kit for BET Bromodomain-Cereblon Binding): 0.71 µM |
| O=C1CCC(c2cccc(NC(=O)c3cc(-c4ccccc4)ccc3Cl)c2)C(=O)N1 (stereo not shown) [AEV40222] | 1.72 |  |
| COc1cc(Cl)ccc1CNc1cccc(C2CCC(=O)NC2=O)c1 (stereo not shown) [AEV40096] | 0.99 |  |
| O=C1CCC(c2cccc(NS(=O)(=O)c3cccc(NC(=O)c4cccc(Cl)c4)c3)c2)C(=O)N1 (stereo not shown) [AEV40136] | 0.79 |  |
| CCCCc1ccc(C(=O)Nc2cccc(Nc3cccc(C4CCC(=O)NC4=O)c3)c2)cc1 (stereo not shown) [AEV40221] | 1.65 |  |
| O=C1CCC(c2cccc(NC(=O)c3c(Cl)cc(Cl)cc3Cl)c2)C(=O)N1 (stereo not shown) [AEV40138] | 0.8 |  |
| O=C1CCC(c2cccc(NC(=O)c3n[nH]cc3Cl)c2)C(=O)N1 (stereo not shown) [AEV40183] | 1.05 |  |
